This is an account of results in US9540399B2, “Quinolone derivatives” (priority 2013, dated 2017).

In brackets after ≈: the same amount, converted by molar mass. Some results are limits rather than exact numbers.

In general, MIC refers to the lowest concentration that inhibits growth of the organism.

Experiment in all cases: Bacterial growth minimal inhibitory concentration, microdilution
Holding throughout (assay type): cell-based
In general terms: Dilution methods test growth across graded concentrations, often in twofold steps.

In assay [1] the test system is Klebsiella pneumoniae A651. The settings on record: multiply-resistant, quinolone-resistant strain, cation-adjusted Mueller Hinton Broth, read-out: MIC for K. pneumoniae A651. Here is the method: (§1) Minimal Inhibitory Concentrations (MICs; mg/l) were determined in cation-adjusted Mueller Hinton Broth by a microdilution method following the description given in “Methods for Dilution Antimicrobial Susceptibility Tests for Bacteria that Grow Aerobically”, Approved standard, 7th ed., Clinical and Laboratory Standards Institute (CLSI) Document M7-A7, Wayne, Pa., USA, 2006.
(§2) All Example compounds were tested against several Gram positive and especially Gram negative bacteria. […] Staphylococcus aureus A798, Klebsiella pneumoniae A651 and Acinetobacter baumanii T6474 are multiply-resistant strains (in particular quinolone-resistant), while Moraxella catarrhalis A894 and E. coli ATCC 25922 are quinolone-sensitive strains.

Assay [2] has as its system Staphylococcus aureus A798. Conditions: multiply-resistant, quinolone-resistant strain, cation-adjusted Mueller Hinton Broth, read-out: MIC for S. aureus A798. The procedure: as §1, §2
Assay [3] has as its system Moraxella catarrhalis A894. Conditions: quinolone-sensitive strain, cation-adjusted Mueller Hinton Broth. The procedure:
as §1, §2

In assay [4] the test system is Acinetobacter baumanii T6474. Conditions: Acinetobacter baumannii, multiply-resistant, quinolone-resistant strain, cation-adjusted Mueller Hinton Broth. Here is the method:
as §1, §2

The subject of assay [5] is E. coli ATCC 25922. Conditions: Escherichia coli, ATCC25922; quinolone-sensitive strain; cation-adjusted Mueller Hinton Broth. The procedure: as §1, §2

With `O=C1CSc2ccc(CNCCN3CCN(c4nc5c(cc4F)c(=O)c(C(=O)O)cn5C4CC4)CC3)nc2N1` [Example 4, 1-Cyclopropyl-6-fluoro-4-oxo-7-(4-{2-[(3-oxo-3,4-dihydro-2H-pyrido[3,2-b][1,4]thiazin-6-ylmethyl)-amino]-ethyl}-piperazin-1-yl)-1,4-dihydro-[1,8]naphthyridine-3-carboxylic acid], the minimal inhibitory concentration (MIC) in assay [1] is 2 µg/mL (≈ 3.61 µM); in assay [2], above 8 µg/mL; in assay [3], 0.25 µg/mL (≈ 0.452 µM); in assay [4], 2 µg/mL (≈ 3.61 µM); in assay [5] it was 1 µg/mL (≈ 1.81 µM).

As to `O=C1CSc2ccc(CNC3CCN(c4nc5c(cc4F)c(=O)c(C(=O)O)cn5C4CC4)CC3)nc2N1` [Example 10, 1-Cyclopropyl-6-fluoro-4-oxo-7-{4-[(3-oxo-3,4-dihydro-2H-pyrido[3,2-b][1,4]thiazin-6-ylmethyl)-amino]-piperidin-1-yl}-1,4-dihydro-[1,8]naphthyridine-3-carboxylic acid], the MIC in assay [1] was determined as 1 µg/mL (≈ 1.91 µM); in assay [2], 4 µg/mL (≈ 7.63 µM); in assay [3] it was 0.063 µg/mL (≈ 0.12 µM); in assay [4] it was 0.25 µg/mL (≈ 0.477 µM); in assay [5], 0.5 µg/mL (≈ 0.953 µM).

`O=C1COc2ccc(CNC[C@H]3CC[C@H](Nc4nc5c(cc4F)c(=O)c(C(=O)O)cn5C4CC4)CC3)nc2N1` [Example 8, trans-1-Cyclopropyl-6-fluoro-4-oxo-7-(4-{[(3-oxo-3,4-dihydro-2H-pyrido[3,2-b][1,4]oxazin-6-ylmethyl)-amino]-methyl}-cyclohexylamino)-1,4-dihydro-[1,8]naphthyridine-3-carboxylic acid]: the MIC is 8 µg/mL (≈ 14.9 µM) in assay [1]; above 8 µg/mL in assay [2]; 0.25 µg/mL (≈ 0.466 µM) in assay [3]; above 8 µg/mL in assay [4]; 0.5 µg/mL (≈ 0.932 µM) in assay [5].

`O=C1CSc2ccc(CNCC3CCN(Cc4nc5c(cc4F)c(=O)c(C(=O)O)cn5C4CC4)CC3)nc2N1` [Example 9, 1-Cyclopropyl-6-fluoro-4-oxo-7-(4-{[(3-oxo-3,4-dihydro-2H-pyrido[3,2-b][1,4]thiazin-6-ylmethyl)-amino]-methyl}-piperidin-1-ylmethyl)-1,4-dihydro-[1,8]naphthyridine-3-carboxylic acid]: the MIC in assay [1] is 2 µg/mL (≈ 3.62 µM); in assay [2], above 8 µg/mL; in assay [3], 1 µg/mL (≈ 1.81 µM); in assay [4], 8 µg/mL (≈ 14.5 µM); in assay [5], 1 µg/mL (≈ 1.81 µM).

In the case of `CCn1cc(C(=O)O)c(=O)c2cc(F)c(N[C@H]3CC[C@H](CNCc4ccc5c(n4)NC(=O)CS5)CC3)nc21` [Example 15, trans-1-Ethyl-6-fluoro-4-oxo-7-(4-{[(3-oxo-3,4-dihydro-2H-pyrido[3,2-b][1,4]thiazin-6-ylmethyl)-amino]-methyl}-cyclohexylamino)-1,4-dihydro-[1,8]naphthyridine-3-carboxylic acid], the MIC stood at 0.5 µg/mL (≈ 0.925 µM) in assay [1]; 1 µg/mL (≈ 1.85 µM) in assay [2]; 0.031 µg/mL (≈ 0.0573 µM) in assay [3]; 0.063 µg/mL (≈ 0.117 µM) in assay [4]; 0.125 µg/mL (≈ 0.231 µM) in assay [5].

Regarding `O=C1CSc2ccc(CNC3CCN(CCc4nc5c(cc4F)c(=O)c(C(=O)O)cn5C4CC4)CC3)nc2N1` [Example 3, 1-Cyclopropyl-6-fluoro-4-oxo-7-(2-{4-[(3-oxo-3,4-dihydro-2H-pyrido[3,2-b][1,4]thiazin-6-ylmethyl)-amino]-piperidin-1-yl}-ethyl)-1,4-dihydro-[1,8]naphthyridine-3-carboxylic acid], the minimal inhibitory concentration (MIC) stood at 1 µg/mL (≈ 1.81 µM) in assay [1]; 2 µg/mL (≈ 3.62 µM) in assay [2]; 0.5 µg/mL (≈ 0.905 µM) in assay [3]; 4 µg/mL (≈ 7.24 µM) in assay [4]; 0.25 µg/mL (≈ 0.452 µM) in assay [5].

Consider `O=C1CSc2ccc(CN3CCC(CCNc4nc5c(cc4F)c(=O)c(C(=O)O)cn5C4CC4)CC3)nc2N1` [Example 6, 1-Cyclopropyl-6-fluoro-4-oxo-7-{2-[1-(3-oxo-3,4-dihydro-2H-pyrido[3,2-b][1,4]thiazin-6-ylmethyl)-piperidin-4-yl]-ethylamino}-1,4-dihydro-[1,8]naphthyridine-3-carboxylic acid], for which the MIC was 2 µg/mL (≈ 3.62 µM) in assay [1]; above 8 µg/mL in assay [2]; 0.5 µg/mL (≈ 0.905 µM) in assay [3]; 0.5 µg/mL (≈ 0.905 µM) in assay [4]; 2 µg/mL (≈ 3.62 µM) in assay [5].
